± gives the expanded uncertainty stated by the source.
Columns and labels:
[1] = refractive index (Na D-line) (dimensionless); conditions: 298.15 K; 101.33 kPa; Liquid
[2] = Liquid; for mass density: 298.15 K, 101.33 kPa

Compound | refractive index [1] | mass density [2] | vapor or sublimation pressure ([2]; 340.25 K) | vapor or sublimation pressure ([2]; 350.05 K) | vapor or sublimation pressure ([2]; 370.55 K) | vapor or sublimation pressure ([2]; 354.15 K) | vapor or sublimation pressure ([2]; 402.95 K) | vapor or sublimation pressure ([2]; 409.35 K)
CCCCCC [hexane] | 1.3723 ± 0.0016 | 654.8 ± 1.4 kg/m3 | 95.8 ± 5 kPa | – | – | – | – | –
Clc1ccccc1 [chlorobenzene] | 1.5219 ± 0.0016 | 1100.9 ± 2.9 kg/m3 | – | – | – | – | 95.8 ± 5 kPa | –
Cc1ccc(C)cc1 [1,4-dimethylbenzene] | 1.4933 ± 0.0016 | 856.6 ± 2.1 kg/m3 | – | – | – | – | – | 95.8 ± 5 kPa
CCO [ethanol] | 1.3594 ± 0.0016 | 784.9 ± 1.8 kg/m3 | – | 95.8 ± 5 kPa | – | – | – | –
Cc1cccc(C)c1 [1,3-dimethylbenzene] | 1.4946 ± 0.0016 | 860.1 ± 2.1 kg/m3 | – | – | – | – | – | 95.8 ± 5 kPa

Further lines, with some results ahead:

refractive index [1] | mass density [2] | vapor or sublimation pressure ([2]; 340.25 K) | vapor or sublimation pressure ([2]; 350.05 K) | vapor or sublimation pressure ([2]; 370.55 K) | vapor or sublimation pressure ([2]; 354.15 K) | Compound | vapor or sublimation pressure ([2]; 402.95 K) | vapor or sublimation pressure ([2]; 409.35 K)
1.3889 ± 0.0016 | 687.8 ± 1.5 kg/m3 | – | – | 95.8 ± 5 kPa | – | CC(C)CC(C)(C)C [2,2,4-trimethylpentane] | – | –
1.3852 ± 0.0016 | 781.2 ± 1.8 kg/m3 | – | – | – | 95.8 ± 5 kPa | CC(C)(C)O [2-methylpropan-2-ol] | – | –

Source: the NIST ThermoML archive (doi:10.1016/j.jct.2005.04.006)
